Measurements reported in patent US7964531B2, “3-phenoxy-4-pyridazinol derivatives and herbicidal composition containing the same” (Mitsui Chemicals Agro, Inc., priority 2001, dated 2011).

Assays:
Type in all cases: in vivo
Conditions in all cases: wettable powder applied 3 days after transplanting, judged after 25 days
Cyperus serotinus = test: Test Example 1: herbicidal effects, paddy-field pot test
Method in brief: (§1)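 Scores are growth inhibition ratings from 0 (0–10%) to 5 (91–100%), judged 25 days after a water-diluted wettable powder was applied to flooded pots. Treatment followed transplanting of 2.2-leaf rice by 3 days; weeds were seeded at the soil surface or planted as germinated tubers.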

Scirpus joncoides = test: as above
Method in brief: as §1

[1] = system: annual broad-leaved weeds (Lindernia spp., Rotala indica); test: as above
Method in brief: as §1

[2] = system: barnyardgrass (Echinochloa oryzicola Vasing.); test: as above
Method in brief: as §1

[3] = system: transplanted paddy-field rice; test: Test Example 1: crop injury against transplanted paddy-field rice
Method in brief: as §1

Structure (SMILES)	Herbicidal effects Cyperus serotinus (Cyperus serotinus; chemical dosage 10 g/a)	Herbicidal effects Cyperus serotinus (Cyperus serotinus; chemical dosage 20 g/a)	Herbicidal effects Scirpus joncoides (Scirpus joncoides; chemical dosage 10 g/a)	Herbicidal effects Scirpus joncoides (Scirpus joncoides; chemical dosage 20 g/a)	Herbicidal effects Broad leaf ([1]; chemical dosage 10 g/a)	Herbicidal effects Broad leaf ([1]; chemical dosage 20 g/a)	Herbicidal effects Barnyard grass ([2]; chemical dosage 10 g/a)	Herbicidal effects Barnyard grass ([2]; chemical dosage 20 g/a)	Crop injury against transplanted rice ([3]; chemical dosage 10 g/a)	Crop injury against transplanted rice ([3]; chemical dosage 20 g/a)	Herbicidal effects Cyperus serotinus (Cyperus serotinus; chemical dosage 12.5 g/a)	Herbicidal effects Cyperus serotinus (Cyperus serotinus; chemical dosage 25 g/a)	Herbicidal effects Scirpus joncoides (Scirpus joncoides; chemical dosage 12.5 g/a)	Herbicidal effects Scirpus joncoides (Scirpus joncoides; chemical dosage 25 g/a)	Herbicidal effects Broad leaf ([1]; chemical dosage 12.5 g/a)	Herbicidal effects Broad leaf ([1]; chemical dosage 25 g/a)	Herbicidal effects Barnyard grass ([2]; chemical dosage 12.5 g/a)	Herbicidal effects Barnyard grass ([2]; chemical dosage 25 g/a)	Crop injury against transplanted rice ([3]; chemical dosage 12.5 g/a)	Crop injury against transplanted rice ([3]; chemical dosage 25 g/a)
Oc1cc(Cl)nnc1Oc1c(F)cccc1Br [Example 233]	4 (Growth inhibition rate; 71 to 90%)	5 (Growth inhibition rate; 91 to 100%)	3 (Growth inhibition rate; 51 to 70%)	5 (Growth inhibition rate; 91 to 100%)	4 (Growth inhibition rate; 71 to 90%)	5 (Growth inhibition rate; 91 to 100%)	3 (Growth inhibition rate; 51 to 70%)	4 (Growth inhibition rate; 71 to 90%)	0 (Growth inhibition rate; 0 to 10%)	0 (Growth inhibition rate; 0 to 10%)										
Oc1cc(Cl)nnc1Oc1ccccc1F [Example 49]											5 (Growth inhibition rate; 91 to 100%)	5 (Growth inhibition rate; 91 to 100%)	3 (Growth inhibition rate; 51 to 70%)	4 (Growth inhibition rate; 71 to 90%)	3 (Growth inhibition rate; 51 to 70%)	5 (Growth inhibition rate; 91 to 100%)	1 (Growth inhibition rate; 11 to 30%)	2 (Growth inhibition rate; 31 to 50%)	0 (Growth inhibition rate; 0 to 10%)	0 (Growth inhibition rate; 0 to 10%)
Cc1cccc(C)c1Oc1nnc(Cl)cc1O [Example 21]	5 (Growth inhibition rate; 91 to 100%)		5 (Growth inhibition rate; 91 to 100%)		5 (Growth inhibition rate; 91 to 100%)		2 (Growth inhibition rate; 31 to 50%)		0 (Growth inhibition rate; 0 to 10%)											
Oc1cc(Cl)nnc1Oc1cccc2c1OCO2 [Example 192]	5 (Growth inhibition rate; 91 to 100%)	5 (Growth inhibition rate; 91 to 100%)	5 (Growth inhibition rate; 91 to 100%)	5 (Growth inhibition rate; 91 to 100%)	2 (Growth inhibition rate; 31 to 50%)	3 (Growth inhibition rate; 51 to 70%)	2 (Growth inhibition rate; 31 to 50%)	5 (Growth inhibition rate; 91 to 100%)	0 (Growth inhibition rate; 0 to 10%)	1 (Growth inhibition rate; 11 to 30%)										
O=C(Oc1cc(Cl)nnc1Oc1ccccc1C1CC1)c1ccccc1 [Example 329]	5 (Growth inhibition rate; 91 to 100%)	5 (Growth inhibition rate; 91 to 100%)	5 (Growth inhibition rate; 91 to 100%)	5 (Growth inhibition rate; 91 to 100%)	5 (Growth inhibition rate; 91 to 100%)	5 (Growth inhibition rate; 91 to 100%)	2 (Growth inhibition rate; 31 to 50%)	4 (Growth inhibition rate; 71 to 90%)	0 (Growth inhibition rate; 0 to 10%)	0 (Growth inhibition rate; 0 to 10%)										
Oc1cc(Cl)nnc1Oc1cc(Cl)ccc1C1CC1 [Example 217]	5 (Growth inhibition rate; 91 to 100%)	5 (Growth inhibition rate; 91 to 100%)	5 (Growth inhibition rate; 91 to 100%)	5 (Growth inhibition rate; 91 to 100%)	5 (Growth inhibition rate; 91 to 100%)	5 (Growth inhibition rate; 91 to 100%)	2 (Growth inhibition rate; 31 to 50%)	4 (Growth inhibition rate; 71 to 90%)	0 (Growth inhibition rate; 0 to 10%)	0 (Growth inhibition rate; 0 to 10%)										
Cc1ccc(C)c(Oc2nnc(Cl)cc2O)c1Br [Example 290]	5 (Growth inhibition rate; 91 to 100%)		4 (Growth inhibition rate; 71 to 90%)		5 (Growth inhibition rate; 91 to 100%)		0 (Growth inhibition rate; 0 to 10%)		0 (Growth inhibition rate; 0 to 10%)											
CCOc1ccccc1Oc1nnc(Cl)cc1O [Example 122]	5 (Growth inhibition rate; 91 to 100%)	5 (Growth inhibition rate; 91 to 100%)	4 (Growth inhibition rate; 71 to 90%)	5 (Growth inhibition rate; 91 to 100%)	5 (Growth inhibition rate; 91 to 100%)	5 (Growth inhibition rate; 91 to 100%)	0 (Growth inhibition rate; 0 to 10%)	0 (Growth inhibition rate; 0 to 10%)	0 (Growth inhibition rate; 0 to 10%)	0 (Growth inhibition rate; 0 to 10%)										
COc1ccccc1Oc1nnc(Cl)cc1O [Example 121]											5 (Growth inhibition rate; 91 to 100%)	5 (Growth inhibition rate; 91 to 100%)	3 (Growth inhibition rate; 51 to 70%)	4 (Growth inhibition rate; 71 to 90%)	5 (Growth inhibition rate; 91 to 100%)	5 (Growth inhibition rate; 91 to 100%)	2 (Growth inhibition rate; 31 to 50%)	3 (Growth inhibition rate; 51 to 70%)	0 (Growth inhibition rate; 0 to 10%)	0 (Growth inhibition rate; 0 to 10%)
Cc1ccc(C)c(Oc2nnc(Cl)cc2O)c1C [Example 295]											5 (Growth inhibition rate; 91 to 100%)	5 (Growth inhibition rate; 91 to 100%)	5 (Growth inhibition rate; 91 to 100%)	5 (Growth inhibition rate; 91 to 100%)	5 (Growth inhibition rate; 91 to 100%)	5 (Growth inhibition rate; 91 to 100%)	0 (Growth inhibition rate; 0 to 10%)	1 (Growth inhibition rate; 11 to 30%)	0 (Growth inhibition rate; 0 to 10%)	0 (Growth inhibition rate; 0 to 10%)
